{
  "source": "paper PMC10289334",
  "about": "(PLOS ONE, 2023)",
  "molecules": {"B1": {"name": "Mycobacterium tuberculosis class II fructose-1,6-bisphosphatase (MtFBPaseII), wild type (enzyme)", "chain": "MELVRVTEAGAMAAGRWVGRGDKEGGDGAAVDAMRELVNSVSMRGVVVIGEGEKDHAPMLYNGEEVGNGDGPECDFAVDPIDGTTLMSKGMTNAISVLAVADRGTMFDPSAVFYMNKIAVGPDAAHVLDITAPISENIRAVAKVKDLSVRDMTVCILDRPRHAQLIHDVRATGARIRLITDGDVAGAISACRPHSGTDLLAGIGGTPEGIIAAAAIRCMGGAIQAQLAPRDDAERRKALEAGYDLNQVLTTEDLVSGENVFFCATGVTDGDLLKGVRYYPGGCTTHSIVMRSKSGTVRMIEAYHRLSKLNEYSAIDFTGDSSAVYPLP", "notes": "also called Mt(Mg^2+)FBPaseII"}},
  "key": {"MtFBPaseII": {"molecular_target": "T1, MtFBPaseII (Mycobacterium tuberculosis, UniProt P9WN21)", "T1 construct": "gene glpX; wild type; tetramer", "assay_type": "binding"}, "FtFBPaseII": {"molecular_target": "T2, FtFBPaseII (Francisella tularensis, UniProt Q5NEJ8)", "T2 construct": "gene gplX", "conditions": "low (suboptimal) Mn2+; active site of chain C"}, "[1]": {"molecular_target": "Francisella tularensis class II fructose-1,6-bisphosphatase (FtFBPaseII), wild type (Francisella tularensis)", "test": "crystal structure"}, "crystal structure": {"molecular_target": "the molecule itself", "test": "crystal structure"}},
  "data": [
    {"molecule": "O=P(O)(O)OC[C@H]1OC(O)(COP(=O)(O)O)[C@@H](O)[C@@H]1O", "note": "(stereo partly shown) [F1,6BP]", "values": [
      {"measurement": "X-ray crystal structure (Form C, 3.7 A)", "setting": "MtFBPaseII", "result": "The final refined structure confirmed the presence of the F1,6BP substrate in both chains"},
      {"measurement": "X-ray crystal structure (Form E, 2.2 A)", "setting": "FtFBPaseII", "result": "could be interpreted as what appeared to be a substrate molecule bound"}
    ]},
    {"molecule": "Francisella tularensis class II fructose-1,6-bisphosphatase (FtFBPaseII), wild type (enzyme)", "values": [
      {"measurement": "stoichiometry N", "setting": "[1]", "result": 4}
    ]},
    {"molecule": "B1", "values": [
      {"measurement": "stoichiometry N", "setting": "crystal structure", "result": 4}
    ]}
  ]
}
